Data published in the NIST ThermoML archive (doi:10.1016/j.fluid.2018.10.024).
Numbers after ± are expanded uncertainties.

What was measured:
[1] = xn = mol fraction of the nth substance listed; settings: 101 kPa, Liquid; for viscosity: Capillary tube (Ostwald / Ubbelohde) method; for mass density: Vibrating tube method
[2] = refractive index (Na D-line) (dimensionless); xn = mol fraction of the nth substance listed; settings: 101 kPa, Liquid, Standard Abbe refractometry

ClC(Cl)Cl [trichloromethane] + CO
Settings	mass density, [1] [kg/m3]	refractive index, [2]	viscosity, [1] [mPa·s]
298.15 K, x2 = 0	1478.75 ± 0.37	1.4422 ± 0.0006	0.5916 ± 0.0044
298.15 K, x2 = 0.0999	1443.84 ± 0.34	1.4379 ± 0.0006	0.6213 ± 0.0045
298.15 K, x2 = 0.2012	1403.84 ± 0.3	1.4312 ± 0.0006	0.6437 ± 0.0046
298.15 K, x2 = 0.3015	1358.87 ± 0.26	1.4217 ± 0.0006	0.6585 ± 0.0046
298.15 K, x2 = 0.3991	1309.46 ± 0.23	1.4115 ± 0.0006	0.6642 ± 0.0046
298.15 K, x2 = 0.502	1250.29 ± 0.21	1.4018 ± 0.0006	0.6635 ± 0.0045
298.15 K, x2 = 0.5998	1186.04 ± 0.19	1.3903 ± 0.0006	0.6552 ± 0.0044
298.15 K, x2 = 0.7012	1108.93 ± 0.19	1.3789 ± 0.0006	0.6385 ± 0.0043
298.15 K, x2 = 0.7998	1020.91 ± 0.21	1.3649 ± 0.0006	0.6182 ± 0.0042
298.15 K, x2 = 0.9001	914.54 ± 0.25	1.3485 ± 0.0006	0.5812 ± 0.0039
303.15 K, x2 = 0	1469.16 ± 0.37	1.4397 ± 0.0006	0.558 ± 0.0041
303.15 K, x2 = 0.0999	1434 ± 0.33	1.4327 ± 0.0006	0.5797 ± 0.0042
303.15 K, x2 = 0.2012	1394.48 ± 0.29	1.4257 ± 0.0006	0.5937 ± 0.0043
303.15 K, x2 = 0.3015	1350.17 ± 0.26	1.4171 ± 0.0006	0.6053 ± 0.0043
303.15 K, x2 = 0.3991	1301.28 ± 0.23	1.4084 ± 0.0006	0.6038 ± 0.0042
303.15 K, x2 = 0.502	1242.63 ± 0.21	1.3979 ± 0.0006	0.6028 ± 0.0042
303.15 K, x2 = 0.5998	1178.79 ± 0.19	1.3881 ± 0.0006	0.5919 ± 0.0041
303.15 K, x2 = 0.7012	1102.19 ± 0.19	1.377 ± 0.0006	0.5796 ± 0.004
303.15 K, x2 = 0.7998	1014.72 ± 0.21	1.3633 ± 0.0006	0.5571 ± 0.0038
303.15 K, x2 = 0.9001	909 ± 0.25	1.3467 ± 0.0006	0.533 ± 0.0037
308.15 K, x2 = 0	1460.01 ± 0.36	1.4356 ± 0.0006	0.5333 ± 0.004
308.15 K, x2 = 0.0999	1424.97 ± 0.33	1.4289 ± 0.0006	0.5525 ± 0.0041
308.15 K, x2 = 0.2012	1385.67 ± 0.29	1.4212 ± 0.0006	0.5656 ± 0.0041
308.15 K, x2 = 0.3015	1341.86 ± 0.26	1.4116 ± 0.0006	0.5743 ± 0.0041
308.15 K, x2 = 0.3991	1293.54 ± 0.23	1.4031 ± 0.0006	0.5766 ± 0.0041
308.15 K, x2 = 0.502	1235.37 ± 0.2	1.3953 ± 0.0006	0.5716 ± 0.004
308.15 K, x2 = 0.5998	1171.85 ± 0.19	1.3856 ± 0.0006	0.5627 ± 0.0039
308.15 K, x2 = 0.7012	1095.59 ± 0.19	1.3729 ± 0.0006	0.5487 ± 0.0038
308.15 K, x2 = 0.7998	1008.7 ± 0.2	–	0.5267 ± 0.0037
308.15 K, x2 = 0.9001	903.73 ± 0.25	1.3443 ± 0.0006	0.5044 ± 0.0035
313.15 K, x2 = 0	1450.39 ± 0.36	1.4338 ± 0.0006	0.5072 ± 0.0038
313.15 K, x2 = 0.0999	1415.61 ± 0.32	1.427 ± 0.0006	0.5241 ± 0.0039
313.15 K, x2 = 0.2012	1376.61 ± 0.29	1.4211 ± 0.0006	0.5355 ± 0.0039
313.15 K, x2 = 0.3015	1333.14 ± 0.25	1.4127 ± 0.0006	0.5429 ± 0.0039
313.15 K, x2 = 0.3991	1285.19 ± 0.22	1.4049 ± 0.0006	0.5434 ± 0.0039
313.15 K, x2 = 0.502	1227.45 ± 0.2	1.3943 ± 0.0006	0.5403 ± 0.0038
313.15 K, x2 = 0.5998	1164.4 ± 0.19	1.3839 ± 0.0006	0.5264 ± 0.0037
313.15 K, x2 = 0.7012	1088.7 ± 0.19	1.3722 ± 0.0006	0.5134 ± 0.0036
313.15 K, x2 = 0.7998	1002.44 ± 0.2	1.3592 ± 0.0006	0.4924 ± 0.0035
313.15 K, x2 = 0.9001	898.23 ± 0.25	–	0.4713 ± 0.0033
318.15 K, x2 = 0	1440.03 ± 0.35	1.4297 ± 0.0006	0.4849 ± 0.0037
318.15 K, x2 = 0.0999	1405.51 ± 0.32	1.4201 ± 0.0006	0.4991 ± 0.0037
318.15 K, x2 = 0.2012	1366.88 ± 0.28	1.4174 ± 0.0006	0.5108 ± 0.0038
318.15 K, x2 = 0.3015	1323.78 ± 0.25	1.4093 ± 0.0006	0.5144 ± 0.0037
318.15 K, x2 = 0.3991	1276.2 ± 0.22	1.4023 ± 0.0006	0.5142 ± 0.0037
318.15 K, x2 = 0.502	1218.91 ± 0.2	1.3927 ± 0.0006	0.5108 ± 0.0036
318.15 K, x2 = 0.5998	1156.37 ± 0.19	1.3817 ± 0.0006	0.4976 ± 0.0035
318.15 K, x2 = 0.7012	1081.29 ± 0.19	1.3719 ± 0.0006	0.483 ± 0.0034
318.15 K, x2 = 0.7998	995.73 ± 0.21	1.3576 ± 0.0006	0.4655 ± 0.0033
318.15 K, x2 = 0.9001	892.36 ± 0.25	1.3406 ± 0.0006	0.4426 ± 0.0032
